Earlier results in article PMC10719327, “A dose-escalation study of HP501, a highly selective URAT1 inhibitor, in male Chinese patients with hyperuricemia” (Scientific Reports, 2023).

Experiments:
[1] = tested on: Japanese patients with hyperuricemia; design: method as in PMID 30334639
patients = tested on: patients; design: method as in PMID 29029210; conditions: lesinurad monotherapy

| SMILES | patients with serum creatinine elevated 1.5 times to baseline level [1] | patients with increased serum creatinine (patients) |
| --- | --- | --- |
| CC(C)(Sc1ccncc1-c1ccc(C#N)c2ccccc12)C(=O)O [Verinurad] | 17.1% |  |
| O=C(O)CSc1nnc(Br)n1-c1ccc(C2CC2)c2ccccc12 [lesinurad] |  | About 24.30% |
